The results in this text go back to patent US8476449B2, “Radioactive iodine labeled organic compound or salt thereof” (Nihon Medi-Physics Co., Ltd., priority 2010, dated 2013).

Common to all, as to type: binding
For assay [1], the target named is T1, Aβ42 aggregate (Homo sapiens, UniProt P05067).
T1 construct: Aβ (1-42) peptide; purchased Peptide Institute, Inc
Briefly: Inhibition constant toward Aβ42 aggregate (thioflavin S competition). To be noted: thioflavin S as ligand, read-out: Ki values (Aβ42 in Table 5). On the procedure: (§1) First, the dissociation constant (Kd) of thioflavin S used as a competitive ligand was first determined by a saturation experiment in order to calculate inhibition constants of compounds 1 to 3. That is, a mixed solution of a 10 vol % ethanol aqueous solution of thioflavin S (0.1-12.8 μmol/L) and the tau protein aggregate (final concentration 0.2 μmol/L, prepared in Example 9) or the Aβ42 aggregate (final concentration 2.2 μmol/L, prepared in Example 11) was incubated for 30 minutes, and the fluorescence intensity was measured using a fluorescence plate reader (FLEX STATION, Molecular Devices). The fluorescence intensity was measured at Ex 440 nm and Em 510 nm for the tau protein aggregate and Ex 440 nm and Em 490 nm for the Aβ42 aggregate. A saturation curve was prepared using GraphPad Prism, and the Kd value for thioflavin S was calculated.
(§2) Next, a mixed solution of a 10 volt ethanol aqueous solution of thioflavin S (1.5 μmol/L) and a test compound (0.6 nmol/L to 10 μmol/L) together with the tau protein aggregate (final concentration 0.2 μmol/L, prepared in Example 9) or the Aβ42 aggregate (final concentration 10 μg/ml, prepared in Example 11) was incubated for 30 minutes. Then, the fluorescence intensities at Ex 440 nm and Em 510 nm for the tau protein aggregate and Ex 440 nm and Em 490 nm for the Aβ42 aggregate were measured using a fluorescence plate reader (FLEX STATION, Molecular Devices). GraphPad Prism inhibition curves were prepared, and Ki values of compounds 1 to 3 were determined using the above obtained Kd value of thioflavin S.

Assay [2] addresses T2, tau protein aggregate (Homo sapiens, UniProt P10636). Put plainly: Competitive inhibition experiment using thioflavin S (ThS) as ligand, fluorescence spectra. More on the design: made in house; host or cells: E. coli BL21. To be noted: tau protein aggregate 0.2 μmol/L, thioflavin S 1.5 μmol/L, compound 0.1-2.7 μmol/L, excitation 440 nm. On the procedure: Tau-441 expression vector (provided by Graduate School of Medicine, Osaka City University) was transferred to E. coli (BL21), culturing was carried out, and a tau protein was extracted and purified. Heparin (0.1 mg/mL) was added to the purified tau protein (1 mg/mL), and incubation in a 50 mmol/L MES buffer (pH 6.8, 100 mmol/L sodium chloride, 0.5 mmol/L EGTA) at 37° C. was carried out for 3 days, thus preparing an aggregate. Formation of the tau protein aggregate was confirmed by SDS-PAGE and thioflavin S fluorescence assay.
A mixed solution (550 μL) of the tau protein aggregate (final concentration […]) thus prepared, thioflavin S (Sigma Aldrich, final concentration 1.5 μmol/L), and compound 1, compound 2, or compound 3 solution at various concentrations (each having final concentrations of 0 to 2.7 μmol/L) was incubated for 30 minutes, and fluorescence spectra at an excitation wavelength of 440 nm were measured using a fluorescence spectrometer (RF-5300PC, Shimadzu Corporation).
In FIGS. 3 to 5, a is a fluorescence spectrum of a sample (sample I) containing only thioflavin S at 1.5 μmol/L, and b is a fluorescence spectrum of a sample (sample II) that is 0.2 μmol/L of the tau protein aggregate in sample I. In FIG. 3, c is a fluorescence spectrum of a sample that is 0.1 μmol/L of compound 1 in sample II, d is a fluorescence spectrum of a sample that is 0.3 μmol/L of compound 1 in sample II, e is a fluorescence spectrum of a sample that is 0.9 μmol/L of compound 1 in sample II, and f is a fluorescence spectrum of a sample that is 2.7 μmol/L of compound 1 in sample II. In FIG. 4, c is a fluorescence spectrum of a sample that is 0.1 μmol/L of compound 2 in sample II, d is a fluorescence spectrum of a sample that is 0.3 μmol/L of compound 2 in sample II, e is a fluorescence spectrum of a sample that is 0.9 μmol/L of compound 2 in sample II, and f is a fluorescence spectrum of a sample that is 2.7 μmol/L of compound 2 in sample II. […]

Assay [3] has as its target T2, tau protein aggregate. Put plainly: Inhibition constant toward tau protein aggregate (thioflavin S competition). More on the design: made in house; host or cells: E. coli BL21. To be noted: for Ki ratios of Aβ42/Tau: ratio of Ki Aβ42 aggregate to Ki tau protein aggregate; for Ki: thioflavin S as ligand, tau protein aggregate, read-out: Ki values (Tau in Table 5). On the procedure: as §1, §2

T2 sequence (P10636 1-441 isoform P10636-8): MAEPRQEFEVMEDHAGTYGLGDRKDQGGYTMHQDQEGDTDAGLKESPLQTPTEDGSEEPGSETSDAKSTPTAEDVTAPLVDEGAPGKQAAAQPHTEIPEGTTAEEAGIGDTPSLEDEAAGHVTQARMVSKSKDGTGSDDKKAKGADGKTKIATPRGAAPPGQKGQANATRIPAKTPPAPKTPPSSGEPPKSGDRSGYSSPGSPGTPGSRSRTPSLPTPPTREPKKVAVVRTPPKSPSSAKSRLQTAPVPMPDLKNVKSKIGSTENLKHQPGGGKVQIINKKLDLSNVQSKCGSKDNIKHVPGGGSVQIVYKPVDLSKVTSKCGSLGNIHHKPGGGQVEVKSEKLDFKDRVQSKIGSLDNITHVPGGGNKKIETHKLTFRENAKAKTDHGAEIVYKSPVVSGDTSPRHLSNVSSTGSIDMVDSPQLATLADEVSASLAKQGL
T1 sequence (P05067 672-713 limits assumed): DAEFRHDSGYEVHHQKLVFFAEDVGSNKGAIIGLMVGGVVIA

In the case of `CCOC(=O)CN1C(=O)/C(=C/c2ccc(-c3cccc(I)c3)o2)SC1=S` [Compound 1, (Z)-ethyl-2-(5-((5-(3-iodophenyl)furan-2-yl)methylene)-4-oxo-2-thioxothiazolidin-3-yl)acetate], the Ki was found to be 0.752 µM in assay [1] and 0.489 µM in assay [3]. Moreover, the “Inhibition of binding of tau protein aggregate to thioflavin S (fluorescence spectra)” value in assay [2] is recorded as “inhibition of binding of a tau protein aggregate to thioflavin S”. In assay [3], the “Ki ratios of Aβ42/Tau” value is reported as 1.54.
Consider `CCOC(=O)CN1C(=O)/C(=C/c2ccc(-c3cccc(I)c3)o2)NC1=S` [Compound 2, (Z)-ethyl-2-(4-((5-(3-iodophenyl)furan-2-yl)methylene)-5-oxo-2-thioxoimidazolidin-1-yl)acetate], for which the inhibition constant (Ki) in assay [1] came to 0.864 µM. For the same compound, the “Inhibition of binding of tau protein aggregate to thioflavin S (fluorescence spectra)” value in assay [2] was “inhibition of binding of a tau protein aggregate to thioflavin S”. Besides, in assay [3], the “Ki ratios of Aβ42/Tau” value is given as 5.57 and the Ki worked out at 0.155 µM.

For orientation: Ki means the dissociation constant of the complex between target and ligand, obtained from inhibition or displacement.
